Measurements reported in ChEMBL document CHEMBL4422622, “Identification of Mineralocorticoid Receptor Modulators with Low Impact on Electrolyte Homeostasis but Maintained Organ Protection” (J Med Chem, 2019).
Converted amounts (≈) assume the structure as drawn.

How the values were obtained:
[1] = Octanol-water partitioning co-efficient, log D of the compound at pH 7.4 by LC/MS/MS analysis; format: physicochemical
[2] = Apparent permeability in human Caco2 cells at 10 uM after 45 to 120 mins by LC/MS/MS analysis; format: ADME, cell-based; details: Caco-2
[3] = Intrinsic clearance in human hepatocytes assessed per million cells at 1 uM measured up to 120 mins in presence of NADPH by LC-MS/MS analysis; format: ADME, cell-based, Hepatocyte; details: read-out: CLH
[4] = biological target: T1, Glucocorticoid receptor (Homo sapiens, UniProt P04150)
T1 sequence (P04150 whole entry): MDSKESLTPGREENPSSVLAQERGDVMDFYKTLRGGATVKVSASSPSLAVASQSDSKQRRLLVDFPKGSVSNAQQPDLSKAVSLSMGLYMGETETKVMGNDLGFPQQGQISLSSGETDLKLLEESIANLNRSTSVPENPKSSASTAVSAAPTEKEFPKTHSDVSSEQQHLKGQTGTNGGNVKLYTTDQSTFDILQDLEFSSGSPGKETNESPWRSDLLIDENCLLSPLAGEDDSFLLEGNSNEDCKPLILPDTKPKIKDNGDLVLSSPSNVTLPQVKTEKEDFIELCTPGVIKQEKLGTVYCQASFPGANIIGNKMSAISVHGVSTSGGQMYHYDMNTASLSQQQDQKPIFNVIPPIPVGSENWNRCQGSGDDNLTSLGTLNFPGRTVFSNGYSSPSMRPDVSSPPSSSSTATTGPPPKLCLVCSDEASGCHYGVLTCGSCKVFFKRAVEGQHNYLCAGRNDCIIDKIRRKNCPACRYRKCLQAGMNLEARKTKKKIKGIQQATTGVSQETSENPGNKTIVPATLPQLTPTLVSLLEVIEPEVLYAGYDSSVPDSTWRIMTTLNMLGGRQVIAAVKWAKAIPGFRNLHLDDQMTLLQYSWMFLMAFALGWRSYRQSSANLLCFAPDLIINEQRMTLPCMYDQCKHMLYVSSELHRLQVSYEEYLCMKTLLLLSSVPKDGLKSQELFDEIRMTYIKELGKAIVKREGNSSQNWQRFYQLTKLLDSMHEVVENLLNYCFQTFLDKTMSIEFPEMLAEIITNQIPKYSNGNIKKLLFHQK
Description: Binding affinity to recombinant human GR LBD by fluormone GS red-fluorescence polarization assay

[5] = biological target: T2, Mineralocorticoid receptor (Homo sapiens, UniProt P08235)
T2 sequence (P08235 whole entry): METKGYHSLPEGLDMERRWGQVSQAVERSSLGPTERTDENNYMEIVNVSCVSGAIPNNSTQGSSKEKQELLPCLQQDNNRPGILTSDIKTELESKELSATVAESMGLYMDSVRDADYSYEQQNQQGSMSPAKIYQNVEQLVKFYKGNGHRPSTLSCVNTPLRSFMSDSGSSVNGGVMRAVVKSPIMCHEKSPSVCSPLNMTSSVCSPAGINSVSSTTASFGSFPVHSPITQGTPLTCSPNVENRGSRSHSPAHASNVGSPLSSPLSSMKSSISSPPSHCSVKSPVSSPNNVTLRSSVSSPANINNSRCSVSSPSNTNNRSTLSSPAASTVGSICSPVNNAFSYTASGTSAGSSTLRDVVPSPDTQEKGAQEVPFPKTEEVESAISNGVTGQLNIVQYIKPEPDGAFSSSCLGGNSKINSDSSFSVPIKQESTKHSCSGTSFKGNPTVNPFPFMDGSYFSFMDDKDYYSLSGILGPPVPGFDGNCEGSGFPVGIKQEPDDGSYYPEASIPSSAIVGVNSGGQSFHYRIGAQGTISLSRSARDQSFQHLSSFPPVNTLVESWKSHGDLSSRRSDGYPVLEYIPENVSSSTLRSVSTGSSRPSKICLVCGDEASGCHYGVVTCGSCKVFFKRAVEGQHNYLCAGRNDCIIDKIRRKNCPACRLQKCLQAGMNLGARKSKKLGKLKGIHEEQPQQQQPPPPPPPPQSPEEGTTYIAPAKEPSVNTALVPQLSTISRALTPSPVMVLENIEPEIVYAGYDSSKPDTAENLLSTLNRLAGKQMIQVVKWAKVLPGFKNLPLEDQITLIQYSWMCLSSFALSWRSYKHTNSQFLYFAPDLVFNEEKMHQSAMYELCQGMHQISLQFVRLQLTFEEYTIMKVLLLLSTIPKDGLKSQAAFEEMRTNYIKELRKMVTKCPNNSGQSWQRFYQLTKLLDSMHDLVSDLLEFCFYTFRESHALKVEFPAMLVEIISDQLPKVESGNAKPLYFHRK
Description: Displacement of [3H]-aldosterone to human mineralocorticoid receptor LBD by radiometric binding assay

[6] = biological target: T2, Mineralocorticoid receptor; remark: listed apart in the source
Description: Antagonist activity at gal4-fused human mineralocorticoid receptor LBD expressed in UAS-MR-bla HEK293 cells by luciferase reporter gene assay

[7] = Intrinsic clearance in human liver microsomes at 1 uM measured up to 30 mins in presence of NADPH by LC-MS/MS analysis; format: ADME, Microsome; details: read-out: CLH
[8] = Kinetic solubility of compound at pH 7.4 after 24 hrs by shake-flask assay; format: physicochemical; details: buffer, read-out: -log(solubility) (converted)

| Structure (SMILES) | logD [1] | Papp at 10 µM [2] | hepatocyte CLint at 1 µM [3] | Ki [4] | Ki [5] | IC50 [6] | microsomal CLint at 1 µM [7] | solubility kinetic at 24 h [8] |
| --- | --- | --- | --- | --- | --- | --- | --- | --- |
| C[C@@H]1CN(c2ccc3c(n2)NC(=O)CO3)[C@H](c2ccccc2)CO1 | 2.7 | – | – | – | – | – | – | – |
| O=c1[nH]c2ccc(/C=C3\c4ccccc4COc4cc(F)ccc43)cc2[nH]1 | 4 | – | – | – | – | – | – | – |
| NC(=O)C[C@H]1COc2cc(Cl)ccc2N1C(=O)c1ccc2c(c1)NC(=O)CO2 | 1.7 | 5.6 ×10⁻⁶ cm/s | 1.5 µL/min/1e6 cells | 31.6 nM | – | – | – | – |
| CNC(=O)C[C@H]1COc2cc(F)c(OC(C)C)cc2N1C(=O)c1ccc2c(c1)NC(=O)CO2 | 1.8 | – | < 2 µL/min/1e6 cells | 79.4 nM | 10 nM | 200 nM | – | – |
| NS(=O)(=O)C[C@H]1COc2cc(F)ccc2N1C(=O)c1ccc2cc[nH]c2c1 | 2.3 | – | 3.6 µL/min/1e6 cells | 631 nM | 50.1 nM | 251 nM | – | – |
| O=C1COc2ccc(C(=O)N3c4cc(CC5CCCCC5)c(F)cc4OC[C@@H]3CCO)cc2N1 | > 4.4 | – | 26 µL/min/1e6 cells | 200 nM | 10 nM | 251 nM | – | – |
| CNC(=O)C[C@H]1COc2cc(C(F)(F)F)ccc2N1C(=O)c1ccc2c(c1)NC(=O)CO2 | 2.4 | 19 ×10⁻⁶ cm/s | 3 µL/min/1e6 cells | 398 nM | 12.6 nM | 79.4 nM | – | – |
| CNC(=O)C[C@H]1COc2ccccc2N1C(=O)c1ccc2c(c1)NC(=O)CO2 | 1.1 | 6.8 ×10⁻⁶ cm/s | < 1 µL/min/1e6 cells | 3160 nM | – | – | – | – |
| N#CC[C@H]1COc2ccccc2N1C(=O)c1ccc2c(c1)NC(=O)CO2 | 1.5 | – | – | – | 501 nM | 3980 nM | 34 µL/min/mg | 794 µM (≈ 277 µg/mL) |
| CNC(=O)C[C@H]1COc2cc(F)c(CC(C)C)cc2N1C(=O)c1ccnc(NC(N)=O)c1 | 2.2 | – | 6.1 µL/min/1e6 cells | 126 nM | 7.94 nM | 100 nM | – | – |
| CC(C)Cc1cc2c(cc1F)OC[C@H](CS(N)(=O)=O)N2C(=O)c1ccc2c(c1)NC(=O)CO2 | 2.8 | – | 18 µL/min/1e6 cells | 1.58 nM | < 0.316 nM | 0.794 nM | – | – |
| CNC(=O)C[C@@H]1COc2cc(F)ccc2N1C(=O)c1ccc2c(c1)NC(=O)CO2 | 1.3 | 6.2 ×10⁻⁶ cm/s | < 1 µL/min/1e6 cells | – | – | – | – | – |
| NC(=O)C[C@H]1COCc2cc(F)ccc2N1C(=O)c1ccc2c(c1)NC(=O)CO2 | 0.4 | < 0.6 ×10⁻⁶ cm/s | < 1 µL/min/1e6 cells | > 15800 nM | > 10000 nM | > 10000 nM | – | – |
| CC(C)Cc1cc2c(cc1Cl)OC[C@H](CC(N)=O)N2C(=O)c1ccc2c(c1)NC(=O)CO2 | 3.3 | – | 11 µL/min/1e6 cells | 1.26 nM | 0.501 nM | 2.51 nM | – | – |
| O=C1COc2ccc(C(=O)N3CCOc4ccccc43)cc2N1 | 2 | – | – | – | 1000 nM | 3160 nM | 4 µL/min/mg | 15.8 µM (≈ 4.92 µg/mL) |
| CNC(=O)C[C@H]1COc2cc(Cl)cc(C)c2N1C(=O)c1ccc2c(c1)NC(=O)CO2 | 1.2 | 7.8 ×10⁻⁶ cm/s | 2.5 µL/min/1e6 cells | > 12600 nM | 398 nM | 2000 nM | – | – |
| NC(=O)C[C@H]1COc2cc(F)ccc2N1C(=O)c1ccc2c(c1)NC(=O)CO2 | 1.1 | 3 ×10⁻⁶ cm/s | < 1 µL/min/1e6 cells | 631 nM | – | – | – | – |

| Structure (SMILES) | logD [1] | Papp at 10 µM [2] | hepatocyte CLint at 1 µM [3] | Ki [4] | Ki [5] | IC50 [6] | microsomal CLint at 1 µM [7] | solubility kinetic at 24 h [8] |
| --- | --- | --- | --- | --- | --- | --- | --- | --- |
| CNC(=O)C[C@H]1COc2cc(C)ccc2N1C(=O)c1ccc2c(c1)NC(=O)CO2 | 1.6 | 14 ×10⁻⁶ cm/s | 2.8 µL/min/1e6 cells | 316 nM | 3.98 nM | 100 nM | – | – |
| CNC(=O)C[C@H]1COc2cc(C#N)ccc2N1C(=O)c1ccc2c(c1)NC(=O)CO2 | 0.9 | 1.5 ×10⁻⁶ cm/s | < 1 µL/min/1e6 cells | > 12600 nM | 1000 nM | 6310 nM | – | – |
| C[C@@H]1CCc2cc(F)ccc2N1C(=O)c1ccc2c(c1)NC(=O)CO2 | 2.9 | – | – | – | 6310 nM | > 10000 nM | 70 µL/min/mg | 100 µM (≈ 34 µg/mL) |
| NC(=O)C[C@H]1CNc2cc(Cl)ccc2N1C(=O)c1ccc2c(c1)NC(=O)CO2 | 1.5 | < 0.81 ×10⁻⁶ cm/s | < 1 µL/min/1e6 cells | 316 nM | 7.94 nM | 126 nM | – | – |
| CNC(=O)C[C@H]1COc2cc(F)c(CC(C)C)cc2N1C(=O)c1ccc2c(c1)NC(=O)CO2 | 3.1 | – | 13 µL/min/1e6 cells | 7.94 nM | 0.631 nM | 20 nM | – | – |
| Cc1ccc2c(c1)OC[C@](C)(CS(C)(=O)=O)N2C(=O)c1ccc2c(c1)NC(=O)CO2 | 1.8 | 38 ×10⁻⁶ cm/s | 60 µL/min/1e6 cells | 1000 nM | 15.8 nM | 63.1 nM | – | – |
| NS(=O)(=O)C[C@H]1COc2cc(F)ccc2N1C(=O)c1ccc2c(c1)NCCO2 | 1.3 | – | < 1 µL/min/1e6 cells | 1260 nM | 39.8 nM | 200 nM | – | – |
| COC(=O)C[C@H]1COc2cc(F)ccc2N1C(=O)c1ccc2c(c1)NC(=O)CO2 | 2.2 | – | – | – | 63.1 nM | 316 nM | > 300 µL/min/mg | 398 µM (≈ 159 µg/mL) |
| CS(=O)(=O)C[C@H]1COc2cc(F)ccc2N1C(=O)c1ccc2c(c1)NC(=O)CO2 | 1.4 | 10 ×10⁻⁶ cm/s | 8 µL/min/1e6 cells | 20 nM | 0.316 nM | 2.51 nM | – | – |
| CNC(=O)C[C@H]1COc2cc(Br)ccc2N1C(=O)c1ccc2c(c1)NC(=O)CO2 | 2.2 | 23 ×10⁻⁶ cm/s | 5 µL/min/1e6 cells | 126 nM | – | – | – | – |
| N=C(c1ccc2c(c1)NC(=O)CO2)[C@@H](Sc1nnc[nH]1)c1ccccc1 | 2.4 | – | – | – | 501 nM | – | – | – |
| NC(=O)C[C@H]1COc2cc(F)c(C3CC3)cc2N1C(=O)c1ccc2c(c1)NC(=O)CO2 | 2 | – | < 2 µL/min/1e6 cells | 2.51 nM | 3.16 nM | 79.4 nM | – | – |
| CNC(=O)C[C@H]1COc2cc(F)ccc2N1C(=O)c1ccc2c(c1)NC(=O)OC2 | 0.9 | – | < 1 µL/min/1e6 cells | > 15800 nM | > 6310 nM | > 10000 nM | – | – |
| CNC(=O)C[C@H]1CCc2cc(F)ccc2N1C(=O)c1ccc2c(c1)NC(=O)CO2 | 1.4 | 6.3 ×10⁻⁶ cm/s | < 1.8 µL/min/1e6 cells | 6310 nM | 316 nM | 2000 nM | – | – |
| Cc1ccc(C2CCCCN2S(=O)(=O)c2ccc3c(c2)NC(=O)CO3)cc1 (racemic) | 3.3 | – | – | – | – | 6310 nM | 120 µL/min/mg | < 0.794 µM |
| CCNC(=O)CC1COc2cc(F)ccc2N1C(=O)c1ccc2c(c1)NC(=O)CO2 (racemic) | 1.6 | 10 ×10⁻⁶ cm/s | 3 µL/min/1e6 cells | > 15800 nM | > 10000 nM | > 10000 nM | – | – |
